Data on 11 molecules can be found in ChEMBL document CHEMBL3045400, “Synthesis of novel triazole derivatives as potent inhibitor of allene oxide synthase (CYP74A), a key enzyme in jasmonic acid biosynthesis” (J Pestic Sci, 2012).

The assay concerns the target T1, Allene oxide synthase, chloroplastic (Arabidopsis thaliana, UniProt Q96242).
T1 sequence (Q96242 whole entry): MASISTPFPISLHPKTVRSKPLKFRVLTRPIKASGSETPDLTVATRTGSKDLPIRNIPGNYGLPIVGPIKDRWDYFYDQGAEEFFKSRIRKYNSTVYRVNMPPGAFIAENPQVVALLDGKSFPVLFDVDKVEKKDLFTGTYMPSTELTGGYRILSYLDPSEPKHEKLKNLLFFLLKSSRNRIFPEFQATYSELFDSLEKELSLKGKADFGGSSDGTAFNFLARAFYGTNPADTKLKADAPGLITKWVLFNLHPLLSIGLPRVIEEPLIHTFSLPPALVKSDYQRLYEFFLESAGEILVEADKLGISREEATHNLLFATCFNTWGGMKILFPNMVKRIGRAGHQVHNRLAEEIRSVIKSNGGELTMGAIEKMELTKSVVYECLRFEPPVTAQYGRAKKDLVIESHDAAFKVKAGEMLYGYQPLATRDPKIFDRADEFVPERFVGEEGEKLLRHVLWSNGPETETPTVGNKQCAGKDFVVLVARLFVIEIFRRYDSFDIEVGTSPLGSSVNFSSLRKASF
Put plainly: Inhibition of recombinant Arabidopsis thaliana allene oxide synthase activity by spectrophotometry.

Regarding `COC(=O)CCCCCCCOC(Cn1cncn1)c1ccc2ccccc2c1` (stereo unspecified), the IC50 (as a rule, the concentration needed to halve the response being measured) came to 750 nM.
The result for `CCCCCCCOC(=O)CCCCCCCOC(Cn1ccnc1)c1ccc(Cl)cc1Cl` (stereo unspecified) reads 10 nM.
For the molecule `COC(=O)CCCCCCCOC(Cn1cncn1)c1ccc(Cl)cc1Cl` (stereo unspecified), the IC50 amounted to 840 nM.
On to `COC(=O)CCCCCCCOC(Cn1cncn1)c1ccccc1` (stereo unspecified), for which the IC50 was 1600 nM.
The result for `COC(=O)CCCCCCCOC(Cn1ccnc1)c1ccc(Cl)cc1Cl` (stereo unspecified) reads 850 nM; that for `COC(=O)CCCCCCCOC(Cn1cncn1)c1ccc(Cl)c(Cl)c1` (stereo unspecified), 930 nM.
Regarding `COC(=O)CCCCCCCOC(Cn1cncn1)c1ccc(F)cc1` (stereo unspecified), the IC50 is 14500 nM.
Consider `COC(=O)CCCCCCCOC(Cn1cncn1)c1cccc(OC)c1` (stereo unspecified), for which the IC50 was 22500 nM.
Take `COC(=O)CCCCCCCOC(Cn1cncn1)c1ccc(OC)cc1` (stereo unspecified): the IC50 was 2600 nM.
With `COC(=O)CCCCCCCOC(Cn1cncn1)c1ccc(-c2ccccc2)cc1` (stereo unspecified) the figure was 54300 nM; with `COC(=O)CCCCCCCOC(Cn1cncn1)c1ccc(Cl)cc1` (stereo unspecified), 1200 nM.
